For 94 compounds, cytotoxicity results are on record in ChEMBL document CHEMBL3507680, “University of Dundee, Gates Library screen for HepG2 cell viability”.

The data set in a line: Human HepG2 cell viability assay in 384 well format. The arrangement: dose 125 nL, time 70.5 hour; concentration not given beside the values. Particulars: HepG2 cells, read-out: Inhibition. Format: toxicity, cell-based.

The structures appear in SMILES notation.

In the case of `C[C@@H]1CN(C(=O)c2ccsc2)C[C@]12CCN(c1ccsc1)C2=O`, the cytotoxicity at 70.5 h worked out at 1.23%.

`O=C(c1ccc2c(c1)OCO2)N1CCC[C@]2(C[C@H](OCC3CC3)CO2)C1`: the cytotoxicity at 70.5 h was -9.71%.

Regarding `O=C(c1cccs1)N1CCC2(C1)c1ccccc1S(=O)(=O)N2CC1CC1` (centres undefined), the cytotoxicity at 70.5 h was -3.76%.

As to `COCCC(=O)N1CC[C@@H]2O[C@@H](C)C[C@H]2C1`, the cytotoxicity at 70.5 h is -15.5%.

`O=C(c1cscn1)N1CCC[C@]2(C[C@H](OCC3CC3)CO2)C1`: the cytotoxicity at 70.5 h is -5.48%.

Regarding `COc1ccccc1CN1CCC2(CC1)CC(Oc1ccccn1)CO2` (centres undefined), the cytotoxicity at 70.5 h amounted to 47.3%.

For the compound `Cc1nc(NCC2CC2)nc2c1COCC21CCN(C)C1` (centres undefined), the cytotoxicity at 70.5 h was -3.52%.

For `O=C(C1CCOC1)N1C[C@H]2CN(Cc3nccs3)C[C@H]2C1` (some centres undefined), the cytotoxicity at 70.5 h is -2.75%.

Regarding `Cc1cc(CN2CC[C@H]3C[C@H](c4nccs4)O[C@@H]3C2)no1`, the cytotoxicity at 70.5 h is -15.6%.

For the compound `O=C(c1ccc[nH]1)N1C[C@H]2CN(Cc3cccc(F)c3)C(=O)[C@H]2C1`, the cytotoxicity at 70.5 h was -0.293%.

As for `Cc1ncoc1C(=O)N1C[C@H]2CCC[C@@]2(COCC2CCOCC2)C1`, the cytotoxicity at 70.5 h was -12.7%.

As to `Cc1noc(C)c1CN1CC[C@H]2C[C@@H](c3ccncn3)O[C@@H]2C1`, the cytotoxicity at 70.5 h is -10.7%.

For `Cn1cc(CN2CCCC3(CCN(Cc4cccnc4)C3=O)C2)cn1` (centres undefined), the cytotoxicity at 70.5 h was -13.4%.

Regarding `CNC(=O)[C@@]12CCO[C@@H]1CCN(S(=O)(=O)c1cccc(C)c1)C2`, the cytotoxicity at 70.5 h was -5.31%.

Regarding `CC(=O)N1CCC2(CCN(C(=O)c3ccc(C)c(C(F)(F)F)c3)CC2)C1`, the cytotoxicity at 70.5 h came out at 37.6%.

For `CCC1=N[C@@]2(CC[C@@H]3CN(C(=O)NCc4ccccc4)C[C@@H]32)C(=O)N1C`, the cytotoxicity at 70.5 h was 26.3%.

As for `CC(C)N1CCO[C@H]2CN(C(=O)c3ccc(N(C)C)cc3)C[C@H]21`, the cytotoxicity at 70.5 h was -2.38%.

With `CC(C)NC(=O)C1CN(C(=O)N2CCCC2)CC12CCOCC2` (centres undefined), the cytotoxicity at 70.5 h is -1.86%.

Consider `O=C(c1ccccn1)C1CCCN(c2nccc(CCC(F)(F)F)n2)C1` (centres undefined), for which the cytotoxicity at 70.5 h is -13.1%.

Consider `c1ccc(-c2nnc(CN3C[C@@H]4CC[C@H](C3)N(CC3CCC3)C4)o2)cc1`, for which the cytotoxicity at 70.5 h was determined as 18.8%.

As for `COCCN(C/C=C/c1ccccc1)Cc1ccccn1`, the cytotoxicity at 70.5 h is 6.25%.

As for `O=C(NCCc1cccnc1)C1CCCN(Cc2ccco2)C1` (centres undefined), the cytotoxicity at 70.5 h is 16.1%.

For `Cc1ccccc1C(Nc1ncnc2c1CCNC2)c1ccccc1` (centres undefined), the cytotoxicity at 70.5 h was -1.58%.

On to `CCOC(=O)CC(C)Nc1nc(C2CCCC2)nc2c1cnn2C` (centres undefined), for which the cytotoxicity at 70.5 h was -12.8%.

For `CC1(c2ccccc2)CCC(=O)N(CCN2CCCOC2=O)C1` (centres undefined), the cytotoxicity at 70.5 h is -6.79%.

As to `CCN1CC(NC(=O)Nc2nc(C)n(C(C)C)n2)CC1=O` (centres undefined), the cytotoxicity at 70.5 h was found to be 9.96%.

For the compound `CCC[C@H]1CN(S(=O)(=O)c2ccccc2)C[C@@H]1N`, the cytotoxicity at 70.5 h came out at 16.4%.

As to `C=C(C)COc1cccc(CN(C)C(C)c2ccncn2)c1` (centres undefined), the cytotoxicity at 70.5 h was -4.71%.

`CNc1nc(N2C[C@H](NC(=O)CCOC)[C@@H](C3CC3)C2)nc2c1CCC2`: the cytotoxicity at 70.5 h was -15.7%.

For the compound `Cc1cc(C)c(C(=O)NC(c2nnc3n2CCNCC3)C(C)C)c(C)c1` (centres undefined), the cytotoxicity at 70.5 h was -5.04%.

On to `Cc1c(C(C)NC2CCCC2)cnn1-c1ccc(F)cc1F` (centres undefined), for which the cytotoxicity at 70.5 h amounted to 0.586%.

In the case of `c1cc(-c2nc3c(c(NCCc4c[nH]cn4)n2)CCNCC3)ccn1`, the cytotoxicity at 70.5 h is 5.61%.

Take `Cc1ncsc1C(=O)N[C@@H](Cc1ccccc1)C(N)=O`: the cytotoxicity at 70.5 h is -1.24%.

As to `CC(C)n1cnnc1CN1CCC2(CCCN(C3CCCCC3)C2=O)C1` (centres undefined), the cytotoxicity at 70.5 h was -2.59%.

Regarding `COc1ccc(C(=O)NC2CC2)c(OC2CCN(CC3CC3)CC2)c1`, the cytotoxicity at 70.5 h is -2.04%.

For the compound `CC[C@H](C)[C@@H](CO)NC(C)Cc1ccc(F)cc1` (some centres undefined), the cytotoxicity at 70.5 h was -5.84%.

With `CS(=O)(=O)N1C[C@@H]2CC[C@H](C1)N(Cc1ccc3nsnc3c1)C2`, the cytotoxicity at 70.5 h is 18.3%.

`Cn1c(CN2CCCC(Cn3cc(CCO)nn3)C2)cc2ccccc21` (centres undefined): the cytotoxicity at 70.5 h was -0.291%.

Consider `O=C1CCCCN1CC(=O)N1CCCC(c2ccccc2)C1` (centres undefined), for which the cytotoxicity at 70.5 h was -20.6%.

As for `CN(CCc1ccccn1)C(=O)CCC1CCCN(c2ncccn2)C1` (centres undefined), the cytotoxicity at 70.5 h is -1.54%.

For the compound `CN1C(=O)C(c2ccccc2)CC12CCN(CCN)CC2` (centres undefined), the cytotoxicity at 70.5 h is -5.41%.

As for `Cc1cccc(OC2CN(C(=O)c3cnn(C)c3)C2)c1`, the cytotoxicity at 70.5 h turned out to be 16.2%.

As to `Cc1csc(CN(C)C(=O)c2cccc(CCC(C)(C)O)c2)n1`, the cytotoxicity at 70.5 h was -6.05%.

Regarding `COc1cccc(CCC2CCCN(C(=O)c3ccc(=O)n(C)n3)C2)c1` (centres undefined), the cytotoxicity at 70.5 h is -6.31%.

Take `COCCC1CN(c2nc(-c3ccccc3)nc3c2CCNC3)CCO1` (centres undefined): the cytotoxicity at 70.5 h was found to be 25.4%.

With `c1cncc(-c2cccc(-c3ccn(CCN4CCCCC4)n3)c2)c1`, the cytotoxicity at 70.5 h is 13.9%.

Consider `CS(=O)(=O)N1CC[C@]2(O)CCN(c3cc(C#N)ccn3)C[C@@H]2C1`, for which the cytotoxicity at 70.5 h was -11.9%.

On to `CC[C@@]1(O)CCN(C(=O)c2cccc3cc(C)oc23)C[C@H]1O`, for which the cytotoxicity at 70.5 h was found to be 6.9%.

Consider `CC(C)c1cc(C2CCN(C(=O)Cn3cncn3)CC2)[nH]n1`, for which the cytotoxicity at 70.5 h stood at 43.3%.

Turning to `CC1(C)Cc2nc(C(C)(C)C)ncc2C(NC(=O)Cc2nnn[nH]2)C1` (centres undefined), the cytotoxicity at 70.5 h was determined as 52.3%.

For `CN1CCN(Cc2c[nH]cn2)CC12CCC(=O)N(CC1CC1)CC2` (centres undefined), the cytotoxicity at 70.5 h turned out to be 6.57%.

For `O=C(C1CC12CCC2)N1CCC(n2cc(-c3ccsc3)nn2)CC1` (centres undefined), the cytotoxicity at 70.5 h is -9.29%.

`O=C(CCn1cncn1)N1CCC2(CC1)[C@H](O)C[C@@H]2OCCO`: the cytotoxicity at 70.5 h was 0.165%.

As for `CNc1nc(C(=O)N2CCC3(CCCN(CCOC)C3=O)C2)cs1` (centres undefined), the cytotoxicity at 70.5 h is -3.96%.

Take `N#Cc1ccc(N2CCC(c3nccn3Cc3cscn3)CC2)nc1`: the cytotoxicity at 70.5 h was -0.885%.

With `Cc1nc(CN2CCCC(CCc3ccccc3C)C2)c[nH]1` (centres undefined), the cytotoxicity at 70.5 h is 19%.

As to `COc1ccccc1OCCCn1c(C)c(C)oc1=O`, the cytotoxicity at 70.5 h was 2.36%.

Regarding `COc1ccccc1OCCCc1cc(C)nc(N)n1`, the cytotoxicity at 70.5 h is -7.2%.

On to `Cc1cc(C(=O)N2C[C@H]3CC[C@@H]2CN(Cc2ccccn2)C3)nc(C)n1`, for which the cytotoxicity at 70.5 h was -0.674%.

For the compound `O=C(NCCC1CCCCO1)c1cc(COc2ccccc2F)[nH]n1` (centres undefined), the cytotoxicity at 70.5 h was -4.49%.

For `COc1cc(NCCCSc2nnc(C)s2)ncn1`, the cytotoxicity at 70.5 h is 12%.

On to `CN(C)c1ccccc1C(=O)N1C[C@@H](CN2CCC(O)CC2)[C@@H](CO)C1`, for which the cytotoxicity at 70.5 h amounted to 1.37%.

In the case of `Cc1ccsc1CN(CCCC(F)(F)F)Cc1ccccn1`, the cytotoxicity at 70.5 h is -10.1%.

With `Cc1cc(-c2nn(C)c(Cl)c2CN2CCC3(CC2)[C@H](O)C[C@@H]3O)no1`, the cytotoxicity at 70.5 h is -4.3%.

Turning to `CN(C)C(=O)c1ccc(-c2cccc3c2CCNC3)cc1`, the cytotoxicity at 70.5 h is -18%.

Regarding `COc1cc(CNc2nc3c(c(=O)[nH]2)CCNC3)cc(OC)c1OC`, the cytotoxicity at 70.5 h is -6.47%.

As to `CC(C)=CCC1(C(=O)O)CCCN(c2cc(N)ncn2)C1` (centres undefined), the cytotoxicity at 70.5 h worked out at 6.26%.

Take `Cc1ccc(C(C)NCc2cn(CCC(N)=O)c3ccccc23)cc1C` (centres undefined): the cytotoxicity at 70.5 h was -3.87%.

As for `Cc1nn(C)c2nc(N3CCN(Cc4nccn4C)CC3)sc12`, the cytotoxicity at 70.5 h is -8.28%.

Consider `CCCc1nc(CN(CC)C(=O)c2ccc3[nH]cnc3c2)no1`, for which the cytotoxicity at 70.5 h worked out at 23.9%.

Turning to `CCN(Cc1noc(CC(C)C)n1)Cc1ncccc1C(=O)O`, the cytotoxicity at 70.5 h was -3.41%.

For the compound `CCc1nnc(CNC2CCN(c3ncnc4c(C)csc34)CC2)s1`, the cytotoxicity at 70.5 h was -1.72%.

With `COc1nccnc1N1CCN(Cc2cccc(C)c2)C(=O)C1`, the cytotoxicity at 70.5 h was 7%.

As to `CCC[C@H]1CN(S(C)(=O)=O)C[C@@H]1NC(=O)CCCn1ccnc1`, the cytotoxicity at 70.5 h came out at 1.51%.

In the case of `O=C(NCCCn1cccn1)C1CCC(=O)N(CC2CCCCC2)C1` (centres undefined), the cytotoxicity at 70.5 h is -2.08%.

As for `CCC(CO)N(Cc1ccsc1)Cc1ccccc1C#N` (centres undefined), the cytotoxicity at 70.5 h is -11.3%.

For the compound `COc1cccc(-c2nc3c([nH]2)CC(C)(C)CNC3=O)c1OC`, the cytotoxicity at 70.5 h was -9.59%.

Regarding `CN(CCc1ccccn1)C(=O)C1Cc2ccccc2CN1C` (centres undefined), the cytotoxicity at 70.5 h was -10.6%.

Consider `CC(C)c1cc(-c2cnn(C)c2C2CC2)c(C#N)c(N)n1`, for which the cytotoxicity at 70.5 h is -0.849%.

For `CCOCCC(=O)N1C[C@H]2CC[C@@H]1CN(Cc1ccncc1)C2`, the cytotoxicity at 70.5 h is -11.6%.

Turning to `COc1ccc(CN2CCC3(CC(=O)N(c4cncnc4)C3)C2)cc1` (centres undefined), the cytotoxicity at 70.5 h is -15.2%.

As for `O=C(CC1CC1)N1CC[C@H]2[C@@H]1CCC(=O)N2c1cccnc1`, the cytotoxicity at 70.5 h is -16.4%.

As for `N#Cc1ccc(C(=O)N2CC[C@H]3[C@@H]2CCC(=O)N3c2cccnc2)cc1`, the cytotoxicity at 70.5 h is -6.84%.

As for `CN(C)c1ncnc2c1CCN(CC1CCCC1)CC2`, the cytotoxicity at 70.5 h was -13.2%.

With `O=C(Cc1ccsc1)N1C[C@@H]2CN(Cc3ccoc3)CCO[C@@H]2C1`, the cytotoxicity at 70.5 h was -11.4%.

As for `CCS(=O)(=O)NC[C@]12COC[C@H]1CN(Cc1cccc(OC)c1)C2`, the cytotoxicity at 70.5 h was -11.2%.

In the case of `Cn1cc(CN2CCOCC3(C2)CN(c2ccccc2)C(=O)CO3)cn1` (centres undefined), the cytotoxicity at 70.5 h is -5.28%.

For `COCCN(C)C[C@@H]1CCC[C@@H]2CN(c3cc(OC)ncn3)C[C@@H]21`, the cytotoxicity at 70.5 h was -4.84%.

For the compound `CS(=O)(=O)N1CCC[C@]2(C[C@@H](Oc3ncccc3F)CO2)C1`, the cytotoxicity at 70.5 h was -5.05%.

Regarding `O=C(Cc1ccccn1)N1CCC2(CC1)CC(Oc1ccccn1)CO2` (centres undefined), the cytotoxicity at 70.5 h is -9.02%.

For `COc1ccc(CN2C[C@@H]3OCCN(CC4CCCO4)[C@@H]3C2)cc1` (some centres undefined), the cytotoxicity at 70.5 h is -19.1%.

For `O=C1CO[C@@H]2CN(Cc3cccs3)C[C@H]2N1Cc1ccncc1`, the cytotoxicity at 70.5 h was determined as 7.47%.

Consider `c1cn2c(n1)CN(CC1CC1)CC(CN1CCOCC1)C2` (centres undefined), for which the cytotoxicity at 70.5 h is -7.21%.

Regarding `Cc1noc(C)c1CN1CCN(Cc2ccncc2)c2ncccc2C1`, the cytotoxicity at 70.5 h is -7.22%.
